According to patent US10294202B2, “Pyrrolidinones as herbicides” (FMC Corporation, priority 2013, dated 2019):

Assays:
rice [1] = experiment: Test C flooded paddy test; type: in vivo, Oryza sativa; conditions: Flood
In short: (§1)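 Visual ratings from 0, no effect, to 100, complete control, were made against untreated controls after 13–15 greenhouse days. Compounds had gone straight into paddy water 3 cm above the soil, kept at that depth, on 2-leaf-stage plants.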

sedge, umbrella = experiment: Test C flooded paddy test; type: in vivo, Cyperus difformis; conditions: Flood
In short: as §1

galium = experiment: Test C pre-/postemergence herbicide test; type: in vivo, Galium aparine; conditions: for Plant response rating (scale of 0 to 100), Galium: 250 g ai/ha
In short: (§2)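 Compound solutions contained surfactant in a non-phytotoxic solvent. These were sprayed onto pots of loam/sand sown with seeds, and onto young plants (2 to 18 cm, 1- to 4-leaf) in sphagnum peat–vermiculite mix. Visual injury scores (0 none, 100 complete control) were recorded after 13 to 15 days.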

pigweed = experiment: Test C pre-/postemergence herbicide test; type: in vivo, Amaranthus retroflexus
In short: as §2

wheat = experiment: Test A pre-/postemergence herbicide test; type: in vivo, Triticum aestivum
In short: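 Formulated compound (non-phytotoxic solvent, surfactant) sprayed pre- onto soil of seeded loam/sand pots or post- onto seedlings at 1–2 leaves; ~10 d greenhouse; 0–100 visual control rating versus untreated.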

wheat (winter wheat) = experiment: Test C pre-/postemergence herbicide test; type: in vivo, Triticum aestivum
In short: as §2

rice [2] = experiment: Test B flooded paddy test; type: in vivo, Oryza sativa; conditions: Flood, scale of 0 to 100 where 0 is no effect and 100 is complete control
In short: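 First, plants reach the 2-leaf stage; next, pots are flooded to 3 cm and compound is delivered into the water; finally, after 13 to 15 greenhouse days at constant depth, injury is graded visually from 0 to 100 against controls.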

foxtail, giant = experiment: Test C pre-/postemergence herbicide test; type: in vivo, Setaria faberii
In short: as §2

[3] = 250 g ai/ha, scale of 0 to 100 where 0 is no effect and 100 is complete control, 13 to 15 days
[4] = Preemergence, 31 g ai/ha, scale 0 to 100, 0 is no effect and 100 is complete control
[5] = Preemergence, 62 g ai/ha, scale 0 to 100 (0 no effect, 100 complete control)
[6] = Preemergence, 125 g ai/ha, scale 0 to 100 (0 no effect, 100 complete control)
[7] = Postemergence, 500 g ai/ha, 0 to 100 scale (0 no effect, 100 complete control)
[8] = 31 g ai/ha, scale of 0 to 100 where 0 is no effect and 100 is complete control, 13 to 15 days
[9] = 62 g ai/ha, scale of 0 to 100 where 0 is no effect and 100 is complete control, 13 to 15 days
[10] = 125 g ai/ha, scale of 0 to 100 where 0 is no effect and 100 is complete control, 13 to 15 days
[11] = Preemergence, 125 g ai/ha, scale 0 to 100
[12] = Postemergence, 31 g ai/ha, scale 0 to 100 (0 no effect, 100 complete control)
[13] = Postemergence, 62 g ai/ha, scale 0 (no effect) to 100 (complete control)
[14] = Postemergence, 125 g ai/ha, scale 0 to 100 (0 no effect, 100 complete control)
[15] = Postemergence, 250 g ai/ha, scale 0 to 100 (0 no effect, 100 complete control)
[16] = Postemergence, 125 g ai/ha, visual rating on 0 to 100 scale (0 no effect, 100 complete control), approx. 10 days
[17] = Postemergence, 16 g ai/ha, scale 0 to 100 (0 no effect, 100 complete control)
[18] = Preemergence, 16 g ai/ha, scale 0 to 100

O=C1NCC(c2ccc(C(F)(F)F)c(F)c2)C1C(=O)Nc1cccc(F)c1F (racemic) [Compound 247]
Plant response rating, Rice (rice [1]; [3]): 0
Plant response rating, Rice (rice [1]; 500 g ai/ha, scale 0 to 100): 0
Plant response rating, Rice (rice [1]; 1000 g ai/ha, scale 0 to 100): 0
Plant response rating, Rice (rice [1]; 2000 g ai/ha, scale 0 to 100): 15
Plant response rating, Sedge, Umbrella (sedge, umbrella; [3]): 0
Plant response rating, Sedge, Umbrella (sedge, umbrella; 500 g ai/ha, scale 0 to 100): 0
Plant response rating, Sedge, Umbrella (sedge, umbrella; 1000 g ai/ha, scale 0 to 100): 0
Plant response rating, Sedge, Umbrella (sedge, umbrella; 2000 g ai/ha, scale 0 to 100): 0
Galium plant response rating (galium; [4]): 90
Galium plant response rating (galium; [5]): 90
Plant response rating, Galium (galium; [6]): 90
Plant response rating (scale of 0 to 100), Galium (galium; Preemergence): 90
Pigweed plant response rating (pigweed; [4]): 0
Pigweed plant response rating (pigweed; [5]): 55
Plant response rating, Pigweed (pigweed; [6]): 85
Plant response rating (scale of 0 to 100), Pigweed (pigweed; Preemergence, 250 g ai/ha): 90
Plant response rating, Wheat (wheat; Postemergence, 125 g ai/ha, 0 to 100 scale, 0 is no effect, 100 is complete control): 0
Plant response rating, Wheat (wheat; [7]): 30
Plant response rating, Wheat (wheat; Preemergence, 125 g ai/ha, 0 to 100 scale where 0 is no effect and 100 is complete control): 0
Plant response rating, Wheat (wheat; preemergence, 500 g ai/ha, 0 to 100 scale, 0 is no effect and 100 is complete control): 0
Wheat plant response rating (wheat (winter wheat); [4]): 0
Wheat plant response rating (wheat (winter wheat); [5]): 0
Plant response rating (scale of 0 to 100), Wheat (wheat (winter wheat); Preemergence, 250 g ai/ha): 0
Plant response rating, Rice (rice [2]; 1000 g ai/ha): 0
Foxtail, Giant plant response rating (foxtail, giant; [4]): 95
Foxtail, Giant plant response rating (foxtail, giant; [5]): 95
Plant response rating, Foxtail, Giant (foxtail, giant; [6]): 98
Plant response rating (scale of 0 to 100), Foxtail, Giant (foxtail, giant; Preemergence, 250 g ai/ha): 100

Cc1cccc(NC(=O)C2C(=O)NCC2c2cccc(C(F)(F)F)c2)c1 (stereo not shown) [Compound 317]
Plant response rating, Rice (rice [1]; [8]): 0
Plant response rating, Rice (rice [1]; [9]): 0
Plant response rating, Rice (rice [1]; [10]): 0
Plant response rating, Rice (rice [1]; [3]): 0
Plant response rating, Sedge, Umbrella (sedge, umbrella; [8]): 0
Plant response rating, Sedge, Umbrella (sedge, umbrella; [9]): 0
Plant response rating, Sedge, Umbrella (sedge, umbrella; [10]): 0
Plant response rating, Sedge, Umbrella (sedge, umbrella; [3]): 0
Galium plant response rating (galium; [4]): 0
Galium plant response rating (galium; [5]): 0
Plant response rating, Galium (galium; [11]): 0
Plant response rating (scale of 0 to 100), Galium (galium; Preemergence): 0
Plant response rating, Pigweed (pigweed; [12]): 5
Plant response rating, Pigweed (pigweed; [13]): 5
Plant response rating, Pigweed (pigweed; [14]): 5
Plant response rating, Pigweed (pigweed; [15]): 5
Pigweed plant response rating (pigweed; [4]): 0
Pigweed plant response rating (pigweed; [5]): 0
Plant response rating, Pigweed (pigweed; [11]): 0
Plant response rating, Wheat (wheat; [16]): 0
Plant response rating, Wheat (wheat; [7]): 20
Plant response rating, Wheat (wheat (winter wheat); [12]): 0
Plant response rating, Wheat (wheat (winter wheat); [13]): 0
Plant response rating, Wheat (wheat (winter wheat); [14]): 0
Plant response rating, Wheat (wheat (winter wheat); [15]): 0
Wheat plant response rating (wheat (winter wheat); [5]): 0
Plant response rating, Wheat (wheat (winter wheat); [11]): 0
Plant response rating, Rice (rice [2]; 500 g ai/ha): 0
Plant response rating, Foxtail, Giant (foxtail, giant; [12]): 0
Plant response rating, Foxtail, Giant (foxtail, giant; [13]): 0
Plant response rating, Foxtail, Giant (foxtail, giant; [14]): 0
Plant response rating, Foxtail, Giant (foxtail, giant; [15]): 50
Foxtail, Giant plant response rating (foxtail, giant; [4]): 80
Foxtail, Giant plant response rating (foxtail, giant; [5]): 90
Plant response rating, Foxtail, Giant (foxtail, giant; [11]): 90
Plant response rating (scale of 0 to 100), Foxtail, Giant (foxtail, giant; Preemergence, 250 g ai/ha): 95

CN1CC(c2cccc(C(F)(F)F)c2)C(C(=O)Nc2ccccc2F)C1=O (stereo not shown) [Compound 277]
Plant response rating, Rice (rice [1]; [9]): 0
Plant response rating, Rice (rice [1]; [10]): 0
Plant response rating, Rice (rice [1]; [3]): 0
Plant response rating, Rice (rice [1]; 500 g ai/ha, scale 0 to 100): 0
Plant response rating, Sedge, Umbrella (sedge, umbrella; [9]): 0
Plant response rating, Sedge, Umbrella (sedge, umbrella; [10]): 0
Plant response rating, Sedge, Umbrella (sedge, umbrella; [3]): 0
Plant response rating, Sedge, Umbrella (sedge, umbrella; 500 g ai/ha, scale 0 to 100): 0
Plant response rating, Galium (galium; [17]): 40
Plant response rating, Galium (galium; [12]): 45
Plant response rating, Galium (galium; [13]): 60
Plant response rating, Galium (galium; [14]): 75
Galium plant response rating (galium; [4]): 100
Galium plant response rating (galium; [5]): 90
Plant response rating, Galium (galium; [6]): 100
Plant response rating, Galium (galium; [18]): 0
Plant response rating, Pigweed (pigweed; [17]): 5
Plant response rating, Pigweed (pigweed; [12]): 10
Plant response rating, Pigweed (pigweed; [13]): 10
Plant response rating, Pigweed (pigweed; [14]): 30
Pigweed plant response rating (pigweed; [4]): 10
Pigweed plant response rating (pigweed; [5]): 35
Plant response rating, Pigweed (pigweed; [6]): 40
Plant response rating, Pigweed (pigweed; [18]): 0
Plant response rating, Wheat (wheat; [16]): 60
Plant response rating, Wheat (wheat; [7]): 70
Plant response rating, Wheat (wheat (winter wheat); [17]): 0
Plant response rating, Wheat (wheat (winter wheat); [12]): 0
Plant response rating, Wheat (wheat (winter wheat); [13]): 0
Plant response rating, Wheat (wheat (winter wheat); [14]): 0
Wheat plant response rating (wheat (winter wheat); [4]): 60
Wheat plant response rating (wheat (winter wheat); [5]): 70
Plant response rating, Wheat (wheat (winter wheat); [18]): 40
Plant response rating, Rice (rice [2]; 500 g ai/ha): 0
Plant response rating, Foxtail, Giant (foxtail, giant; [17]): 0
Plant response rating, Foxtail, Giant (foxtail, giant; [12]): 10
Plant response rating, Foxtail, Giant (foxtail, giant; [13]): 85
Plant response rating, Foxtail, Giant (foxtail, giant; [14]): 85
Foxtail, Giant plant response rating (foxtail, giant; [4]): 98
Foxtail, Giant plant response rating (foxtail, giant; [5]): 98
Plant response rating, Foxtail, Giant (foxtail, giant; [6]): 98
Plant response rating, Foxtail, Giant (foxtail, giant; [18]): 95
